Data reported in ChEMBL document CHEMBL3856260, “A synergistic antitumor effect of polyphyllin I and formosanin C on hepatocarcinoma cells” (Bioorg Med Chem Lett, 2016).
Calls of active or inactive are those of the source. No cut-off for these calls is given here.

Experiments:
[1] = system: HepG2; assay: Induction of nuclear fragmentation in human HepG2 cells at 0.5 uM after 24 hrs by Hoechst 33258 staining-based fluorescence microscopic analysis in presence of formosanin C; assay type: functional, cell-based
[2] = Induction of apoptosis in human HepG2 cells assessed as upregulation of p53 mRNA level at 1 uM incubated for 24 hrs by RT-PCR analysis in presence of formosanin C; assay type: functional, cell-based
[3] = Induction of apoptosis in human HepG2 cells assessed as upregulation of Bax mRNA level at 1 uM incubated for 24 hrs by RT-PCR analysis in presence of formosanin C; assay type: functional, cell-based
[4] = Induction of apoptosis in human HepG2 cells assessed as upregulation of caspase3 mRNA level at 1 uM incubated for 24 hrs by RT-PCR analysis in presence of formosanin C; assay type: functional, cell-based
[5] = Induction of apoptosis in human HepG2 cells assessed as upregulation of p53 level at 1 uM incubated for 24 hrs by Western blot analysis in presence of formosanin C; assay type: functional, cell-based
[6] = Induction of apoptosis in human HepG2 cells assessed as upregulation of Bax level at 1 uM incubated for 24 hrs by Western blot analysis in presence of formosanin C; assay type: functional, cell-based
[7] = Induction of apoptosis in human HepG2 cells assessed as upregulation of caspase3 level at 1 uM incubated for 24 hrs by Western blot analysis in presence of formosanin C; assay type: functional, cell-based
[8] = system: HepG2; assay: Induction of apoptosis in human HepG2 cells assessed as downregulation of Bcl2 mRNA level at 1 uM incubated for 24 hrs by RT-PCR analysis in presence of formosanin C; assay type: functional, cell-based
[9] = system: HepG2; assay: Induction of apoptosis in human HepG2 cells assessed as downregulation of NF-kappaB […] level at 1 uM incubated for 24 hrs by RT-PCR analysis in presence of formosanin C; assay type: functional, cell-based
[10] = system: HepG2; assay: Induction of chromatin compaction in human HepG2 cells at 0.5 uM after 24 hrs by Hoechst 33258 staining-based fluorescence microscopic analysis in presence of formosanin C; assay type: functional, cell-based
[11] = system: HepG2; assay: Induction of nuclear fragmentation in human HepG2 cells at 1 uM after 24 hrs by Hoechst 33258 staining-based fluorescence microscopic analysis; assay type: functional, cell-based
[12] = system: HepG2; assay: Induction of chromatin compaction in human HepG2 cells at 1 uM after 24 hrs by Hoechst 33258 staining-based fluorescence microscopic analysis; assay type: functional, cell-based
[13] = Cell cycle arrest in human HepG2 cells assessed as accumulation at G1 phase at 1 uM after 24 hrs by propidium iodide staining-based flow cytometry(reference value: 55.62%); assay type: functional
[14] = Cell cycle arrest in human HepG2 cells assessed as accumulation at S phase at 1 uM after 24 hrs by propidium iodide staining-based flow cytometry(reference value: 42.33%); assay type: functional
[15] = Cell cycle arrest in human HepG2 cells assessed as accumulation at G2 phase at 1 uM after 24 hrs by propidium iodide staining-based flow cytometry(reference value: 2.04%); assay type: functional
[16] = system: HepG2; assay: Induction of apoptosis in human HepG2 cells at 1 uM after 24 hrs by propidium iodide staining-based flow cytometry(reference value: 3.01%); assay type: functional
[17] = Cell cycle arrest in human HepG2 cells assessed as accumulation at G1 phase at 1 uM after 24 hrs by propidium iodide staining-based flow cytometry in presence of formosanin C (reference value: 55.62%); assay type: functional
[18] = Cell cycle arrest in human HepG2 cells assessed as accumulation at G2 phase at 1 uM after 24 hrs by propidium iodide staining-based flow cytometry in presence of formosanin C (reference value: 2.04%); assay type: functional
[19] = Cell cycle arrest in human HepG2 cells assessed as accumulation at S phase at 1 uM after 24 hrs by propidium iodide staining-based flow cytometry in presence of formosanin C (reference value: 42.33%); assay type: functional
[20] = system: HepG2; assay: Induction of apoptosis in human HepG2 cells at 1 uM after 24 hrs by propidium iodide staining-based flow cytometry in presence of formosanin C (reference value: 3.01%); assay type: functional
[21] = system: HepG2; assay: Increase in p21 mRNA level in human HepG2 cells at 1 uM incubated for 24 hrs by RT-PCR analysis in presence of formosanin C relative to polyphyllin I alone treatment; assay type: functional, cell-based
[22] = system: HepG2; assay: Increase in cyclin E mRNA level in human HepG2 cells at 1 uM incubated for 24 hrs by RT-PCR analysis in presence of formosanin C relative to polyphyllin I alone treatment; assay type: functional, cell-based
[23] = system: HepG2; assay: Change in PCNA mRNA level in human HepG2 cells at 1 uM incubated for 24 hrs by RT-PCR analysis in presence of formosanin C relative to polyphyllin I alone treatment; assay type: functional, cell-based
[24] = system: HepG2; assay: Increase in p21 level in human HepG2 cells at 1 uM incubated for 24 hrs by Western blot analysis in presence of FC; assay type: functional, cell-based
[25] = system: HepG2; assay: Decrease in cyclin E level in human HepG2 cells at 1 uM incubated for 24 hrs Western blot analysis in presence of FC; assay type: functional, cell-based
[26] = Suppression of MMP9 expression in human HepG2 cells assessed as reduction in enzyme activity at 1 uM after 24 hrs by zymographic analysis in presence of FC; assay type: functional, cell-based
[27] = system: HepG2; assay: Antimigratory activity in human HepG2 cells at 1 uM after 24 hrs by wound healing assay in presence of FC; assay type: functional, cell-based
[28] = system: HepG2; assay: Induction mitochondrial membrane potential changes in human HepG2 cells at 1 uM after 24 hrs by rhodamine 123 staining-based flow cytometry (reference value: 23.8+/-2.3%); assay type: functional
[29] = system: HepG2; assay: Induction mitochondrial membrane potential changes in human HepG2 cells at 1 uM after 24 hrs by rhodamine 123 staining-based flow cytometry in presence of formosanin C (reference value: 23.8+/-2.3%); assay type: functional
[30] = system: HepG2; assay: Induction of Bax translocation from cytosol to mitochondria in human HepG2 cells by Western blot analysis in presence of FC; assay type: functional, cell-based
[31] = system: HepG2; assay: Induction of cytochrome c release in human HepG2 cells by Western blot analysis in presence of FC; assay type: functional, cell-based
[32] = Cytotoxicity against human HepG2 cells after 24 hrs by MTT assay; assay type: functional, cell-based; conditions: HepG2, 24 h
[33] = Cytotoxicity against human Bel7402 cells after 24 hrs by MTT assay; assay type: functional, cell-based; conditions: Bel-7402, 24 h
[34] = Cytotoxicity against human HepG2 cells assessed as combination index at ED30 using 1:1 compound to formosanin C incubated for 24 hrs by MTT assay; assay type: functional
[35] = Cytotoxicity against human Bel7402 cells assessed as combination index at ED30 using 1:1 compound to formosanin C incubated for 24 hrs by MTT assay; assay type: functional, Bel-7402
[36] = Cytotoxicity against human HepG2 cells assessed as combination index at ED50 using 1:1 compound to formosanin C incubated for 24 hrs by MTT assay; assay type: functional
[37] = Cytotoxicity against human Bel7402 cells assessed as combination index at ED50 using 1:1 compound to formosanin C incubated for 24 hrs by MTT assay; assay type: functional, Bel-7402
[38] = Cytotoxicity against human HepG2 cells assessed as combination index at ED75 using 1:1 compound to formosanin C incubated for 24 hrs by MTT assay; assay type: functional
[39] = Cytotoxicity against human Bel7402 cells assessed as combination index at ED75 using 1:1 compound to formosanin C incubated for 24 hrs by MTT assay; assay type: functional, Bel-7402
[40] = Cytotoxicity against human HepG2 cells assessed as combination index at ED90 using 1:1 compound to formosanin C incubated for 24 hrs by MTT assay; assay type: functional
[41] = Cytotoxicity against human Bel7402 cells assessed as combination index at ED90 using 1:1 compound to formosanin C incubated for 24 hrs by MTT assay; assay type: functional, Bel-7402
[42] = system: HepG2; assay: Decrease in CDK2 level in human HepG2 cells at 1 uM incubated for 24 hrs by Western blot analysis in presence of formosanin C relative to relative to polyphyllin I alone treatment; assay type: functional, cell-based
[43] = system: HepG2; assay: Change in PCNA mRNA level in human HepG2 cells at 1 uM incubated for 24 hrs by RT-PCR analysis in presence of formosanin C relative to formosanin C treatment; assay type: functional, cell-based
[44] = system: HepG2; assay: Decrease in CDK2 level in human HepG2 cells at 1 uM incubated for 24 hrs by Western blot analysis in presence of FC; assay type: functional, cell-based
[45] = Suppression of MMP9 expression in human HepG2 cells at 1 uM after 24 hrs by Western blot analysis in presence of FC; assay type: functional, cell-based
[46] = system: HepG2; assay: Induction of Bax translocation from cytosol to mitochondria in human HepG2 cells by Western blot analysis; assay type: functional, cell-based
[47] = system: HepG2; assay: Induction of cytochrome c release in human HepG2 cells by Western blot analysis; assay type: functional, cell-based

Question: Which Activity [1] does the source give for `C[C@@H]1CC[C@@]2(OC1)O[C@H]1C[C@H]3[C@@H]4CC=C5C[C@@H](O[C@@H]6O[C@H](CO)[C@@H](O[C@@H]7O[C@@H](CO)[C@H](O)[C@H]7O)[C@H](O)[C@H]6O[C@@H]6O[C@@H](C)[C@H](O)[C@@H](O)[C@H]6O)CC[C@]5(C)[C@H]4CC[C@]3(C)[C@H]1[C@@H]2C` here?
Answer: Active

Question: What about the Activity [2] of the same molecule?
Answer: Active

Question: And the Activity [3]?
Answer: Active

Question: What about the Activity [4] of the same molecule?
Answer: Active

Question: What about the Activity [5] of the same molecule?
Answer: Active

Question: What about the Activity [6] of the same molecule?
Answer: Active

Question: And the Activity [7]?
Answer: Active

Question: What about the Activity [8] of the same molecule?
Answer: Active

Question: What about the Activity [9] of the same molecule?
Answer: Active

Question: What about the Activity [10] of the same molecule?
Answer: Active

Question: What about the Activity [11] of the same molecule?
Answer: Active

Question: And the Activity [12]?
Answer: Active

Question: And the Activity [13]?
Answer: 59.5%

Question: What about the Activity [14] of the same molecule?
Answer: 38.4%

Question: What about the Activity [15] of the same molecule?
Answer: 2.15%

Question: What about the Activity [16] of the same molecule?
Answer: 5.28%

Question: And the Activity [17]?
Answer: 68.7%

Question: And the Activity [18]?
Answer: 2.63%

Question: What about the Activity [19] of the same molecule?
Answer: 28.7%

Question: What about the Activity [20] of the same molecule?
Answer: 7.52%

Question: And the Activity [21]?
Answer: Active

Question: And the Activity [22]?
Answer: Active

Question: And the Activity [23]?
Answer: Active

Question: What about the Activity [24] of the same molecule?
Answer: Active

Question: What about the Activity [25] of the same molecule?
Answer: Active

Question: What about the Activity [26] of the same molecule?
Answer: Active

Question: What about the Activity [27] of the same molecule?
Answer: Active

Question: What about the Activity [28] of the same molecule?
Answer: 27.9%

Question: And the Activity [29]?
Answer: 40.6%

Question: And the Activity [30]?
Answer: Active

Question: And the Activity [31]?
Answer: Active

Question: And the IC50 [32]?
Answer: 4.01 µM

Question: And the IC50 [33]?
Answer: 4.74 µM

Question: What about the CI [34] of the same molecule?
Answer: 0.62

Question: What about the CI [35] of the same molecule?
Answer: 0.67

Question: What about the CI [36] of the same molecule?
Answer: 0.58

Question: What about the CI [37] of the same molecule?
Answer: 0.58

Question: And the CI [38]?
Answer: 0.56

Question: And the CI [39]?
Answer: 0.52

Question: And the CI [40]?
Answer: 0.54

Question: What about the CI [41] of the same molecule?
Answer: 0.46

Question: And the Activity [42]?
Answer: Active

Question: And the Activity [43]?
Answer: Active

Question: And the Activity [44]?
Answer: Active

Question: What about the Activity [45] of the same molecule?
Answer: Active

Question: What about the Activity [46] of the same molecule?
Answer: Active

Question: And the Activity [47]?
Answer: Active
